Reference: patent US12239711B2, “Cereblon ligands and bifunctional compounds comprising the same” (Arvinas Operations, Inc., priority 2014, dated 2025)
Where two headings read alike, the source gives them in different places.

Assays:
[1] = target: T1, Estrogen Receptor-Alpha (ERα) (Homo sapiens, UniProt P03372); experiment: Estrogen Receptor-Alpha (ERα) degradation assay in MCF-7 cells (western blot / In-Cell Western); assay type: cell-based; conditions: for Dmax: MCF7, read-out: ER Dmax; for DC50: read-out: ER DC50
T1 construct: endogenous in cells; host or cells: MCF-7 (MCF7) cells
T1 sequence (P03372 1-595): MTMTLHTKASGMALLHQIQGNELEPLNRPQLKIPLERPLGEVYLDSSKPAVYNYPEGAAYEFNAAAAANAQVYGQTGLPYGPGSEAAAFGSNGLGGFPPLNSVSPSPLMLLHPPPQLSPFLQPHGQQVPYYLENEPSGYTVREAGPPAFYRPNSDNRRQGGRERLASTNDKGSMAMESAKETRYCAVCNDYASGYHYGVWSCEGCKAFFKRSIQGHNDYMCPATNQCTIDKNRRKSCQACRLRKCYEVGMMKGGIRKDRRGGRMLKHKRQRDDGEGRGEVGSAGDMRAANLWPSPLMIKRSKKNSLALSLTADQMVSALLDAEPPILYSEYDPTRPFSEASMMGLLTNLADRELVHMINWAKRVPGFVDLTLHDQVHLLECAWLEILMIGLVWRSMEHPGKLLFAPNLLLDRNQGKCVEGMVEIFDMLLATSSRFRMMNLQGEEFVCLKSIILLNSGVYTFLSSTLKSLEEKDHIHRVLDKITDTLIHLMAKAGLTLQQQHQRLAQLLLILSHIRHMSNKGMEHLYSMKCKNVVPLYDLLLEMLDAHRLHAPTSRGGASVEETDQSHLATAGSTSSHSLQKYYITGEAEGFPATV
Description: 2. Estrogen Receptor-Alpha (ERα) Degradation Assay in MCF-7 Cells Using Western Blot Method for Table 5.
The exemplary novel ERα degraders were assessed for their activity in degrading ERα in MCF-7 cells via western blot. The assay was carried out in the presence of 10% FBS or high percentage of human or mouse serum. Protocols of the western blot assay are described below.
MCF7 cells were grown in DMEM/F12 with 10% FBS and seeded at 24,000 cells per well in 100 μl into 96-well clear tissue culture plates. The following day, the cells were treated with PROTACs in a […] concentration curve with 100 nM being the top concentration and serial dilutions to make the other concentrations (30 nM, 10 nM, 3 nM, 1 nM, and 0.3 nM). At all concentrations, 0.01% DMSO is the final concentration in the well. The following day, the plates are aspirated, washed with 50 μl of cold PBS. The cells are lysed with 50 μl/well 4° C. Cell Lysis Buffer (Catalog #9803; Cell Signaling Technology, Danvers, MA) (20 mM Tris-HCL (pH 7.5), 150 mM NaCl, 1 mM Na2EDTA, 1 mM EGTA, 1% Triton, 2.5 mM sodium pyrophosphate, 1 mM B-glycerophosphate, 1 mM sodium vanadate, 1 ug/ml leupeptin). Lysates were clarified at 16,000×g for 10 minutes, and 2 μg of protein was subjected to SDS-PAGE analysis and followed by immunoblotting according to standard protocols. The antibodies used were ERα (Cell Signaling Technologies Catalog #8644), and Tubulin (Sigma Catalog #T9026; St. Louis, MO). Detection reagents were Clarity Western ECL substrate (Bio-Rad Catalog #170-5060; Hercules, CA).
Alternatively, MCF7 cells were grown in DMEM/F12 with 10% FBS and seeded at 24,000 cells per well in 500 μl in 24-well clear tissue culture plates. The following day, the cells were treated with PROTACs in a 5-point concentration curve (100 nM, 33 nM, 11 nM, 3.7 nM, and 1.2 nM) in the presence of 0.01% DMSO. After 72 hours, the wells are aspirated and washed with 500 μl of PBS. The cells are lysed with 100 μl/well 4° C. Cell Lysis Buffer (Catalog #9803; Cell Signaling Technology, Danvers, MA) (20 mM Tris-HCL (pH 7.5), 150 mM NaCl, 1 mM Na2EDTA, 1 mM EGTA, 1% Triton, 2.5 mM sodium pyrophosphate, 1 mM B-glycerophosphate, 1 mM sodium vanadate, 1 ug/ml leupeptin). Lysates were clarified at 16,000×g for 10 minutes, and 2 μg of protein was subjected to SDS-PAGE analysis and followed by immunoblotting according to standard protocols. The antibodies used were ERα (Cell Signaling Technologies Catalog #8644), and Tubulin (Sigma Catalog #T9026; St. Louis, MO). Detection reagents were Clarity Western ECL substrate (Bio-Rad Catalog #170-5060; Hercules, CA).
3. Estrogen Receptor-Alpha (ERα) Degradation Assay Using In-Cell Western™ Assay for Table 5.
Degradation of ERα by claimed compounds were determined in MCF7 cells using an In-Cell Western™ assay. Briefly, MCF7 cells were plated in 96-well plates (2000 cells per well in 100 μl media) and incubated at 37° C. under an atmosphere of 5% CO2 in a humidified incubator overnight. One-hundred (100) μl of media containing test compound (at 2× concentration) was added to the appropriate wells to provide 11 serially decreasing concentrations (top final concentration, 1 μM then 3-fold less for the next 10 concentrations); a vehicle control (DMSO) was also added for each compound. For each experiment, all compounds were assayed in duplicate plates. Cells were then incubated for 3 or 5 days in the above-mentioned environment. The assay was terminated by removal of media, a single wash with ice-cold PBS and the addition of 50 μl paraformaldehyde (PFA: 4% in PBS). After 15 minutes in PFA at room temperature, the cells were permeabilized in Tris-phosphate-buffered saline with Tween (0.1%) (TBST) supplemented with Triton X-100 (0.5%) for 15 minutes. Cells were then blocked in BSA (TBST with BSA, 3%) for one hour. […]

[2] = system: estrogen responsive element/promoter/luciferase reporter gene; experiment: ERE Luciferase Assay in T47D-KBluc cells; assay type: cell-based, human; conditions: 24 hours, luciferase activity, read-out: Target Engagement IC50
Description: 1. ERE Luciferase Assay for Compounds in Table 5.
T47D-KBluc cells (ATCC® #CRL_2865, T47D human breast cancer cells stably transfected with estrogen responsive element/promoter/luciferase reporter gene) were seeded into 96-well white opaque plates in RPMI growth medium supplemented with 10% fetal bovine serum (FBS) and allowed to adhere overnight in a 37° C. humidified incubator. The following day, cells were treated with PROTACs in a 12-point concentration curve (top final concentration of 300 nM with subsequent concentrations being 3-fold less with 2 pM being the lowest concentration in the assay). Each PROTAC was tested independently in two experiments on 96-well plates. After 24 hours, media was removed and lysis buffer was added to the wells. Following lysis, Bright-Glo™ Luciferase Assay Substrate (Promega, Madison WI) was added and the luciferase activity was measured using a Cytation 3 plate reader (BioTek™, Winooski, VT). Each compound was assayed in duplicate and the activity was calculated as IC50 using GraphPad Prism software (San Diego, CA).

Which results are given for `O=C1CCC(N2Cc3cc(N4CCN(CCCC(F)(F)COc5ccc([C@@H]6c7ccc(O)cc7CC[C@@H]6c6ccccc6)cc5)CC4)cc(OC(F)F)c3C2=O)C(=O)N1` (stereo partly drawn) [compound 21, 3-[5-[4-[4,4-difluoro-5-[4-[(1R,2S)-6-hydroxy-2-phenyl-tetralin-1-yl]phenoxy]pentyl]piperazin-1-yl]-7-(difluoromethoxy)-1-oxo-isoindolin-2-yl]piperidine-2,6-dione]?
Dmax [1]: 50 to 75%; DC50 [1]: 1 to 10 nM; IC50 ([2]; Homo sapiens): 2.5 nM

Which results are given for `COCCOCCOc1c(N2CCN(CCCCCOc3ccc([C@@H]4c5ccc(O)cc5CC[C@@H]4c4ccccc4)cc3)CC2)ccc2c1CN(C1CCC(=O)NC1=O)C2=O` (stereo partly drawn) [compound 4, 3-[5-[4-[5-[4-[(1R,2S)-6-hydroxy-2-phenyl-tetralin-1-yl]phenoxy]pentyl]piperazin-1-yl]-4-[2-(2-methoxyethoxy)ethoxy]-1-oxo-isoindolin-2-yl]piperidine-2,6-dione]?
Dmax [1]: ≥ 75%; DC50 [1]: < 1 nM; IC50 ([2]; Homo sapiens): 1.42 nM

With `O=C1CCC(N2C(=O)c3ccc(N4CCN(CC5CCN(c6ccc([C@@H]7c8ccc(O)cc8CC[C@@H]7c7ccccc7)cc6)CC5)CC4)cc3C23CC3)C(=O)N1` (stereo partly drawn) [compound 29, 3-(6′-{4-[(1-{4-[(1R,2S)-6-hydroxy-2-phenyl-1,2,3,4-tetrahydronaphthalen-1-yl]phenyl}piperidin-4-yl)methyl]piperazin-1-yl}-3′-oxo-2′,3′-dihydrospiro[cyclopropane-1,1′-isoindole]-2′-yl)piperidine-2,6-dione] as the compound, how does the Dmax [1] read?
The Dmax was < 50%.

And the IC50 ([2]; Homo sapiens)?
The IC50 was 2.4 nM.

Which results are given for `COc1cc(N2CCN(CC3CCN(c4ccc([C@@H]5c6ccc(O)cc6CC[C@@H]5c5ccccc5)cc4)CC3)CC2)cc2c1C(=O)N(C1CCC(=O)NC1=O)C2` (stereo partly drawn) [compound 15, 3-[5-[4-[[1-[4-[(1R,2S)-6-hydroxy-2-phenyl-tetralin-1-yl]phenyl]-4-piperidyl]methyl]piperazin-1-yl]-7-methoxy-1-oxo-isoindolin-2-yl]piperidine-2,6-dione]?
Dmax [1]: ≥ 75%; DC50 [1]: < 1 nM; IC50 ([2]; Homo sapiens): 1.7 nM

For `COc1cc(N2CCN(CCC3(O)CC(Oc4ccc([C@@H]5c6ccc(O)cc6CC[C@@H]5c5ccccc5)cc4)C3)CC2)cc2c1C(=O)N(C1CCC(=O)NC1=O)C2` (stereo partly drawn) [compound 28, 3-[5-[4-[2-[1-hydroxy-3-[4-[(1R,2S)-6-hydroxy-2-phenyl-tetralin-1-yl]phenoxy]cyclobutyl]ethyl]piperazin-1-yl]-7-methoxy-1-oxo-isoindolin-2-yl]piperidine-2,6-dione], which Dmax [1] is on record?
The Dmax was ≥ 75%.

What about the DC50 [1] of the same compound?
Its DC50 is < 1 nM.

And the IC50 ([2]; Homo sapiens)?
The IC50 was 0.3 nM.

For `COc1cc(N2CCN(CC(=O)C3CC(Oc4ccc([C@@H]5c6ccc(O)cc6CC[C@@H]5c5ccccc5)cc4)C3)CC2)cc2c1C(=O)N(C1CCC(=O)NC1=O)C2` (stereo partly drawn) [compound 26, 3-[5-[4-[2-[3-[4-[(1R,2S)-6-hydroxy-2-phenyl-tetralin-1-yl]phenoxy]cyclobutyl]-2-oxo-ethyl]piperazin-1-yl]-7-methoxy-1-oxo-isoindolin-2-yl]piperidine-2,6-dione], which Dmax [1] is on record?
The Dmax was ≥ 75%.

And the DC50 [1]?
Its DC50 is < 1 nM.

What about the IC50 ([2]; Homo sapiens) of the same compound?
The IC50 was 0.7 nM.

How did the Dmax [1] turn out when `COc1cc(N2CCN(CCC3CCN(c4ccc([C@H]5c6ccc(O)cc6CC[C@H]5c5ccccc5)cc4)CC3)CC2)cc2c1C(=O)N(C1CCC(=O)NC1=O)C2` (stereo partly drawn) [compound 9, 3-(5-{4-[2-(1-{4-[(1S,2R)-6-hydroxy-2-phenyl-1,2,3,4-tetrahydronaphthalen-1-yl]phenyl}piperidin-4-yl)ethyl]piperazin-1-yl}-7-methoxy-1-oxo-2,3-dihydro-1H-isoindol-2-yl)piperidine-2,6-dione] was run?
Its Dmax is 50 to 75%.

And the DC50 [1]?
Its DC50 is ≥ 100 nM.

And the IC50 ([2]; Homo sapiens)?
The IC50 was > 300 nM.

How did the Dmax [1] turn out when `COCCOCCOc1c(N2CCN(CC3CCN(c4ccc([C@H]5c6ccc(O)cc6CC[C@H]5c5ccccc5)cc4)CC3)CC2)ccc2c1CN(C1CCC(=O)NC1=O)C2=O` (stereo partly drawn) [compound 5, 3-(5-{4-[(l-{4-[(1S,2R)-6-hydroxy-2-phenyl-1,2,3,4-tetrahydronaphthalen-1-yl]phenyl}piperidin-4-yl)methyl]piperazin-1-yl}-4-[2-(2-methoxyethoxy)ethoxy]-1-oxo-2,3-dihydro-1H-isoindol-2-yl)piperidine-2,6-dione] was run?
The Dmax was < 50%.

What about the IC50 ([2]; Homo sapiens) of the same compound?
Its IC50 is > 300 nM.

Which results are given for `COc1cc(N2CCN(CC3CCN(c4c(F)cc([C@H]5c6ccc(O)cc6CC[C@H]5c5ccccc5)cc4F)CC3)CC2)cc2c1C(=O)N(C1CCC(=O)NC1=O)C2` (stereo partly drawn) [compound 18, 3-(5-{4-[(1-{2,6-difluoro-4-[(1S,2R)-6-hydroxy-2-phenyl-1,2,3,4-tetrahydronaphthalen-1-yl]phenyl}piperidin-4-yl)methyl]piperazin-1-yl}-7-methoxy-1-oxo-2,3-dihydro-1H-isoindol-2-yl)piperidine-2,6-dione]?
Dmax [1]: 50 to 75%; DC50 [1]: 1 to 10 nM; IC50 ([2]; Homo sapiens): 17.5 nM

`COc1cc(N2CCN(C3CC4CC(Oc5ccc([C@@H]6c7ccc(O)cc7CC[C@@H]6c6ccc(F)cc6)cc5)CC4C3)CC2)cc2c1C(=O)N(C1CCC(=O)NC1=O)C2` (stereo partly drawn) [compound 16, 3-[5-[4-[5-[4-[(1R,2S)-2-(4-fluorophenyl)-6-hydroxy-tetralin-1-yl]phenoxy]-1,2,3,3a,4,5,6,6a-octahydropentalen-2-yl]piperazin-l-yl]-7-methoxy-1-oxo-isoindolin-2-yl]piperidine-2,6-dione] was tested. Which “ER Dmax” value [1] did it give?
Its value is “B (50 <= B < 75)”.

What about the DC50 [1] of the same compound?
The DC50 was < 1 nM.

And the IC50 [2]?
The IC50 was 0.82 nM.

`COc1cc(N2CCN(CC3CCN(c4ccc([C@H]5c6ccc(O)cc6CC[C@H]5c5ccccc5)cc4)CC3)CC2)cc2c1C(=O)N(C1CCC(=O)NC1=O)C2` (some centres unmarked) [compound 31] was tested. Which Dmax [1] did it give?
The Dmax was < 50%.
